The text below walks through data of patent publication US7560536B2, “Morning glory-derived anticancer agents, and novel ipomoeassin compounds” (Virginia Tech Intellectual Properties, Inc., priority 2005, dated 2009).

pIC50: −log10 of the molar value. Like-named read-outs stand apart in the source and are kept apart here.

The experiment has as its system A2780 human ovarian cancer cell line. As to the kind of experiment: Cytotoxicity bioassay against the A2780 ovarian cancer cell line. It counts as cell-based. As to the method: Cytotoxicity Bioassays. Cytotoxicity measurements were performed against the A2780 ovarian cancer cell line as previously described. The A2780 cell line is a drug-sensitive ovarian cancer cell line.

The mark [1] stands for this setting: Homo sapiens, A2780, read-out: IC50 (concentration that inhibited 50% of the growth of the A2780 human ovarian cell line).

`C/C=C(\C)C(=O)OC1C(O)C2OC(COC(=O)CCC(=O)CCCCCC[C@H](CCC)OC3OC(C)C(OC(C)=O)C(O)C3O2)C1OC(=O)/C=C/c1ccccc1` (stereo partly drawn) [Compound 1, Tetradecanoic acid, 11-[[4-O-acetyl-6-deoxy-2-O-[3-O-[(2E)-2-methyl-1-oxo-2-butenyl]-4-O-[(2E)-1-oxo-3-phenyl-2-propenyl]-β-D-glucopyranosyl]-β-D-galactopyranosyl]oxy]-4-oxo-, intramol. 1,6″-ester, (11S)-]: the pIC50 under setting [1] was 6.30.

Take `C/C=C(\C)C(=O)OC1C(O)C2OC(COC(=O)CCC(=O)CCCCCC[C@H](CCC)OC3OC(C)C(O)C(O)C3O2)C1OC(=O)/C=C/c1ccccc1` (stereo partly drawn) [Compound 2, Tetradecanoic acid, 11-[[6-deoxy-2-O-[3-O-[(2E)-2-methyl-1-oxo-2-butenyl]-4-O-[(2E)-1-oxo-3-phenyl-2-propenyl]-β-D-glucopyranosyl]-β-D-galactopyranosyl]oxy]-4-oxo-, intramol. 1,6″-ester, (11S)-]: the pIC50 under setting [1] is 6.40.

As to `C/C=C(\C)C(=O)OC1C(O)C2OC(COC(=O)CCC(=O)[C@@H](O)CCCCC[C@H](CCC)OC3OC(C)C(OC(C)=O)C(O)C3O2)C1OC(=O)/C=C/c1ccccc1` (stereo partly drawn) [Compound 3, Tetradecanoic acid, 11-[[4-O-acetyl-6-deoxy-2-O-[3-O-[(2E)-2-methyl-1-oxo-2-butenyl]-4-O-[(2E)-1-oxo-3-phenyl-2-propenyl]-β-D-glucopyranosyl]-β-D-galactopyranosyl]oxy]-5-hydroxy-4-oxo-, intramol. 1,6″-ester, (5S,11S)-], the pIC50 under setting [1] was 5.54.

For `C/C=C(\C)C(=O)OC1C(O)C2OC(COC(=O)CCC(=O)[C@@H](OC(C)=O)CCCCC[C@H](CCC)OC3OC(C)C(OC(C)=O)C(O)C3O2)C1OC(=O)/C=C/c1ccccc1` (stereo partly drawn) [Compound 4, Tetradecanoic acid, 11-[[4-O-acetyl-6-deoxy-2-O-[3-O-[(2E)-2-methyl-1-oxo-2-butenyl]-4-O-[(2E)-1-oxo-3-phenyl-2-propenyl]-β-D-glucopyranosyl]-β-D-galactopyranosyl]oxy]-5-(acetyloxy)-4-oxo-, intramol. 1,6″-ester, (5S,11S)-], the pIC50 runs as follows: (A2780 human ovarian cancer cell line, read-out: IC50 against A2780) 7.46; under setting [1], 7.46. Turning to `C/C=C(\C)C(=O)OC1C(O)C2OC(COC(=O)CCC(=O)[C@@H](OC(C)=O)CCCCC[C@H](CCC)OC3OC(C)C(O)C(O)C3O2)C1OC(=O)/C=C/c1ccccc1` (stereo partly drawn) [Compound 5, Tetradecanoic acid, 5-(acetyloxy)-11-[[6-deoxy-2-O-[3-O-[(2E)-2-methyl-1-oxo-2-butenyl]-4-O-[(2E)-1-oxo-3-phenyl-2-propenyl]-β-D-glucopyranosyl]-β-D-galactopyranosyl]oxy]-4-oxo-, intramol. 1,6″-ester, (5S,11S)-], under setting [1], the pIC50 was 5.48. Same read-out and setting: the value for `C/C=C(\C)C(=O)OC1C(OC(=O)/C=C/c2ccccc2)C2COC(=O)CCC(=O)CCCCCC[C@H](CCC)OC3OC(C)C(OC(C)=O)C(OC(C)=O)C3OC(O2)C1OC(C)=O` (stereo partly drawn) [Compound 6, 3′,2″-O-Diacetyl ipomoeassin A] was 4.80; that for `C/C=C(\C)C(=O)OC1C(OC(=O)/C=C/c2ccccc2)C2COC(=O)CCC(=O)[C@@H](OC(C)=O)CCCCC[C@H](CCC)OC3OC(C)C(OC(C)=O)C(OC(C)=O)C3OC(O2)C1OC(C)=O` (stereo partly drawn) [Compound 7, 5,3′,2″-O-Triacetyl ipomoeassin C] was 4.72; that for `C/C=C(\C)C(=O)OC1C(O)C2OC(COC(=O)CCC(=O)CCCCCCC(CCCCC)OC3OC(C)C(OC(C)=O)C(O)C3O2)C1OC(=O)/C=C/c1ccccc1` [Compound 14, Hexadecanoic acid, 11-[[4-O-acetyl-6-deoxy-2-O-[3-O-[(2E)-2-methyl-1-oxo-2-butenyl]-4-O-[(2E)-1-oxo-3-phenyl-2-propenyl]-β-D-glucopyranosyl]-β-D-galactopyranosyl]oxy]-4-oxo-, intramol. 1,6″-ester, (11S)-] was 7.44.
